Broadly, the EC50 is the midpoint of the concentration-response curve. A lower EC50 goes with greater potency.

Molecules are shown by their SMILES. Some results are limits rather than exact numbers.

For the first assay, the system named is PKC mediated IL-2 production. Kind of assay: IL-2 ELISA, human primary T cell, anti CD3+CD28+. It is filed as cell-based. The following applies: Homo sapiens, T-cell, 24 h, human primary T cells stimulated with αCD3 and αCD28, 24 hours. An outline of the steps: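 Human peripheral blood T cells, pre-expanded with αCD3/αCD28 and IL-2 and then washed free of IL-2, were pre-incubated with compound for 1 h at 37° C. They were then stimulated on plates coated with […] αCD3 and 5 μg/ml αCD28, or with 0.5 ng/ml PMA plus 0.1 uM ionomycin in the counter assay. IL-2 in supernatants was measured by ELISA after 24 h.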
On the technique in general: ELISA stands for enzyme-linked immunosorbent assay.
Consider `CC1(C)C[C@H](Nc2nc(Nc3ccc(O[C@@H]4CCN(C5COC5)C[C@H]4F)c(C(F)(F)F)c3)ncc2F)C[C@@H]2CCCN21` [Compound 122], for which the 50% effective concentration (EC50) fell in the range of 100 to 500 nM.

Turning to `CC1(C)C[C@H](Nc2nc(Nc3ccc(O[C@H]4CCNC[C@@H]4F)c(Cl)c3)ncc2F)C[C@@H]2CCCN21` [Compound 123], the EC50 is less than 100 nM.

With `CC1(C)C[C@H](Nc2nc(Nc3ccc(OC4CCNCC4O)c(Cl)c3)ncc2F)C[C@@H]2CCCN21` (stereo partly drawn) [Compound 124], the EC50 was in the range of 100 to 500 nM.

`CC1(C)C[C@H](Nc2nc(Nc3ccc4c(c3)-n3nnnc3C(CO)(CO)O4)ncc2F)C[C@@H]2CCCN21` [Compound 125, (8-((4-(((7R,8aS)-5,5-dimethyloctahydroindolizin-7-yl)amino)-5-fluoropyrimidin-2-yl)amino)-4H-benzo[b]tetrazolo[1,5-d][1,4]oxazine-4,4-diyl)dimethanol] came in with a half-maximal effective concentration (EC50) of 1000 to 10000 nM.

Take `CC1(C)C[C@H](Nc2nc(Nc3ccc4c(c3)-n3nnnc3C3(COC3)O4)ncc2F)C[C@@H]2CCCN21` [Compound 126, N^4-((7R,8aS)-5,5-dimethyloctahydroindolizin-7-yl)-5-fluoro-N^2-(spiro[benzo[b]tetrazolo[1,5-d][1,4]oxazine-4,3′-oxetan]-8-yl)pyrimidine-2,4-diamine]: the concentration for a half-maximal effect (EC50) was less than 100 nM.

The compound `CC1(C)C[C@H](Nc2nc(Nc3ccc(OC4CCNCC4)c(OC(F)F)c3)ncc2F)C[C@@H]2CCCN21` [Compound 128, N^2-(3-(difluoromethoxy)-4-(piperidin-4-yloxy)phenyl)-N^4-((7R,8aS)-5,5-dimethyloctahydroindolizin-7-yl)-5-fluoropyrimidine-2,4-diamine] showed a half-maximal effective concentration (EC50) of 100 to 500 nM.

In the case of `CC1(C)C[C@H](Nc2nc(Nc3ccc(OCCO)c(-n4nnnc4C4CC4)c3)ncc2F)C[C@@H]2CCCN21` [Compound 129, 2-(2-(5-cyclopropyl-1H-tetrazol-1-yl)-4-((4-(((7R,8aS)-5,5-dimethyloctahydroindolizin-7-yl)amino)-5-fluoropyrimidin-2-yl)amino)phenoxy)ethan-1-ol], the EC50 is less than 100 nM.

The compound `CC1(C)C[C@H](Nc2nc(Nc3ccc(OCCO)c(F)c3)ncc2F)C[C@@H]2CCCN21` [Compound 130, 2-(4-((4-(((7R,8aS)-5,5-dimethyloctahydroindolizin-7-yl)amino)-5-fluoropyrimidin-2-yl)amino)-2-fluorophenoxy)ethan-1-ol] displayed an EC50 of 500 to 1000 nM.

In the case of `CC1(C)C[C@H](Nc2nc(Nc3ccc(OCCO)c(C(F)(F)F)c3)ncc2F)C[C@@H]2CCCN21` [Compound 131, 2-(4-((4-(((7R,8aS)-5,5-dimethyloctahydroindolizin-7-yl)amino)-5-fluoropyrimidin-2-yl)amino)-2-(trifluoromethyl)phenoxy)ethan-1-ol], the EC50 was less than 100 nM.

As for `Cn1nnn(-c2cc(Nc3ncc(F)c(N[C@@H]4C[C@@H]5CCCN5C(C)(C)C4)n3)ccc2OCCO)c1=O` [Compound 132, 1-(5-((4-(((7R,8aS)-5,5-dimethyloctahydroindolizin-7-yl)amino)-5-fluoropyrimidin-2-yl)amino)-2-(2-hydroxyethoxy)phenyl)-4-methyl-1,4-dihydro-5H-tetrazol-5-one], the EC50 is less than 100 nM.

Consider `CC1(C)C[C@H](Nc2nc(Nc3ccc(OCCO)c(Cl)c3)ncc2F)C[C@@H]2CCCN21` [Compound 133, 2-(2-chloro-4-((4-(((7R,8aS)-5,5-dimethyloctahydroindolizin-7-yl)amino)-5-fluoropyrimidin-2-yl)amino)phenoxy)ethan-1-ol], for which the EC50 was 100 to 500 nM.

`Cc1cc(Nc2ncc(F)c(N[C@@H]3C[C@@H]4CCCN4C(C)(C)C3)n2)ccc1OCCO` [Compound 134, 2-(4-((4-(((7R,8aS)-5,5-dimethyloctahydroindolizin-7-yl)amino)-5-fluoropyrimidin-2-yl)amino)-2-(methyl)phenoxy)ethan-1-ol] gave a concentration for a half-maximal effect (EC50) of 100 to 500 nM.

With `C[C@@H](CO)Oc1ccc(Nc2ncc(F)c(N[C@@H]3C[C@@H]4CCCN4C(C)(C)C3)n2)cc1-n1nnn(C)c1=O` [Compound 135, 1-(5-((4-(((7R,8aS)-5,5-dimethyloctahydroindolizin-7-yl)amino)-5-fluoropyrimidin-2-yl)amino)-2-(((S)-1-hydroxypropan-2-yl)oxy)phenyl)-4-methyl-1,4-dihydro-5H-tetrazol-5-one], the 50% effective concentration (EC50) was less than 100 nM.

For the compound `CC1(C)Oc2ccc(Nc3ncc(F)c(N[C@@H]4C[C@@H]5CCCN5C(C)(C)C4)n3)cc2-n2nnnc21` [Compound 136, N2-(4,4-dimethyl-4H-benzo[b]tetrazolo[1,5-d][1,4]oxazin-8-yl)-N4-((7R,8aS)-5,5-dimethyloctahydroindolizin-7-yl)-5-fluoropyrimidine-2,4-diamine], the EC50 is less than 100 nM.

Take `CC1(C)C[C@H](Nc2nc(Nc3ccc4c(c3)-n3nnnc3C3(CCOCC3)O4)ncc2F)C[C@@H]2CCCN21` [Compound 137, N4-((7R,8aS)-5,5-dimethyloctahydroindolizin-7-yl)-5-fluoro-N2-(2′,3′,5′,6′-tetrahydrospiro[benzo[b]tetrazolo[1,5-d][1,4]oxazine-4,4′-pyran]-8-yl)pyrimidine-2,4-diamine]: the EC50 was less than 100 nM.

In turn, `CC(C)N1CCN(c2ccc(Nc3ncc(F)c(N[C@@H]4C[C@@H]5CCCN5C(C)(C)C4)n3)cc2C#N)CC1` [Compound 138, 5-(4-((7R,8aS)-octahydro-5,5-dimethylindolizin-7-ylamino)-5-fluoropyrimidin-2-ylamino)-2-(4-isopropylpiperazin-1-yl)benzonitrile] returned a 50% effective concentration (EC50) of less than 100 nM.

In the case of `Cn1nnn(-c2cc(Nc3ncc(F)c(N(CC(C)(C)O)[C@@H]4C[C@@H]5CCCN5C(C)(C)C4)n3)c(F)cc2OCC(C)(C)O)c1=O` [Compound 139, 1-(5-(4-(((7R,8aS)-5,5-dimethyloctahydroindolizin-7-yl)(2-hydroxy-2-methylpropyl)amino)-5-fluoropyrimidin-2-ylamino)-4-fluoro-2-(2-hydroxy-2-methylpropoxy)phenyl)-4-methyl-1H-tetrazol-5(4H)-one], the EC50 is greater than 10000 nM.

`COc1ccc(Nc2ncc(F)c(N[C@@H]3C[C@@H]4CCCN4C(C)(C)C3)n2)cc1-n1nnnc1C` [Compound 140, N4-((7R,8aS)-5,5-dimethyloctahydroindolizin-7-yl)-5-fluoro-N2-(4-methoxy-3-(5-methyl-1H-tetrazol-1-yl)phenyl)pyrimidine-2,4-diamine]: the EC50 was less than 100 nM.

As for `Cc1nnnn1-c1cc(Nc2ncc(F)c(N[C@@H]3C[C@@H]4CCCN4C(C)(C)C3)n2)ccc1F` [Compound 141, N4-((7R,8aS)-5,5-dimethyloctahydroindolizin-7-yl)-5-fluoro-N2-(4-fluoro-3-(5-methyl-1H-tetrazol-1-yl)phenyl)pyrimidine-2,4-diamine], the concentration for a half-maximal effect (EC50) is less than 100 nM.

For `Cc1nnnn1-c1ccc(F)c(Nc2ncc(F)c(N[C@@H]3C[C@@H]4CCCN4C(C)(C)C3)n2)c1` [Compound 142, N4-((7R,8aS)-5,5-dimethyloctahydroindolizin-7-yl)-5-fluoro-N2-(2-fluoro-5-(5-methyl-1H-tetrazol-1-yl)phenyl)pyrimidine-2,4-diamine], the EC50 is less than 100 nM.

The same assay, now with this note: human primary T cells stimulated with αCD3 and αCD28, 24 hours.
`CC1(O)COc2ccc(Nc3ncc(F)c(N[C@@H]4C[C@@H]5CCCN5C(C)(C)C4)n3)cc2-n2nnnc21` (stereo partly drawn) [Compound 127] gave an EC50 of less than 100 nM.

Values taken from patent publication US9682976B2, “Protein kinase C inhibitors and uses thereof” (Rigel Pharmaceuticals, Inc., priority 2012, dated 2017).
